Reference: ChEMBL document CHEMBL1128016, “5-Cyano-2-thiouracils and their derivatives: a new class of leishmanicides” (1994)

Legend:
Leishmania donovani [1] = experiment: In vivo anti-leishmanial activity was determined against hamster amastigotes of Leishmania donovani; assay type: functional; set-up: concentration or dose not given beside the values
Leishmania donovani [2] = experiment: In vivo anti-leishmanial activity against hamster amastigotes of Leishmania donovani at a dose of 10 mg/kg for a period of 5 days; assay type: functional, organism-based; set-up: dose 10 mg/kg

Cc1ccc(-c2nc(S)nc(O)c2C#N)cc1
Inhibition (Leishmania donovani [1]): 63%

N#Cc1c(O)nc(S)nc1-c1ccccc1Cl
Inhibition (Leishmania donovani [1]): 0%

COc1cccc(-c2nc3n(c(=O)c2C#N)CCCS3)c1
Inhibition (Leishmania donovani [1]): 63%

COc1cccc(-c2nc3n(c(=O)c2C#N)CCS3)c1
Inhibition (Leishmania donovani [1]): 73%

N#Cc1c(Nc2ccc(F)cc2)nc(SCc2ccccc2)nc1-c1cccnc1
Inhibition (Leishmania donovani [1]): 78%

COc1cccc(-c2nc(S)nc(O)c2C#N)c1
Inhibition (Leishmania donovani [1]): 78%

N#Cc1c(O)nc(S)nc1-c1ccc(F)cc1
Inhibition (Leishmania donovani [1]): 63%

Cc1ccc(-c2nc3n(c(=O)c2C#N)CCCS3)cc1
Inhibition (Leishmania donovani [1]): 62%

Cc1cccc(-c2nc(SCc3ccccc3)nc(O)c2C#N)c1
Inhibition (Leishmania donovani [1]): 0%

N#Cc1c(Nc2ccccc2)nc(SCc2ccccc2)nc1-c1cccnc1
Inhibition (Leishmania donovani [1]): 57%

COc1cccc(-c2nc(SC)n(C)c(=O)c2C#N)c1
Inhibition (Leishmania donovani [1]): 61%

CCc1nc(SCc2ccc(Cl)cc2)nc(O)c1C#N
Inhibition (Leishmania donovani [1]): 76%

N#Cc1c(O)nc(SCc2ccc(Cl)cc2)nc1-c1cccnc1
Inhibition (Leishmania donovani [1]): 84%

COc1cccc(-c2nc(SCc3ccc(Cl)cc3)nc(O)c2C#N)c1
Inhibition (Leishmania donovani [1]): 85%

COc1cccc(-c2nc(SCc3ccccc3)nc(O)c2C#N)c1
Inhibition (Leishmania donovani [1]): 0%

Sodium stibogluconate
inhibition (Leishmania donovani [2]): 86%

CSc1nc(-c2ccc(C)cc2)c(C#N)c(=O)n1C
Inhibition (Leishmania donovani [1]): 50%

C=CCSc1nc(O)c(C#N)c(-c2ccc(C)cc2)n1
Inhibition (Leishmania donovani [1]): 75%

CSc1nc(Cl)c(C#N)c(-c2ccc(C)cc2)n1
Inhibition (Leishmania donovani [1]): 36%

Cc1ccc(-c2nc3n(c(=O)c2C#N)CCS3)cc1
Inhibition (Leishmania donovani [1]): 65%

C=CCSc1nc(O)c(C#N)c(-c2cccc(OC)c2)n1
Inhibition (Leishmania donovani [1]): 80%

CCC1NC(=S)NC(=O)C1C#N (centres undefined)
Inhibition (Leishmania donovani [1]): 80%

Cc1ccc(-c2nc(SCc3ccccc3)[nH]c(=O)c2C#N)cc1
Inhibition (Leishmania donovani [1]): 82%

COc1cccc(-c2nc(SC)nc(Cl)c2C#N)c1
Inhibition (Leishmania donovani [1]): 30%
